Test systems include BT-549 breast; HCT-116 colon; HCT-15 colon; HT29 colon; NCI-H226 lung; NCI-H23 lung; OVCAR-3 ovarian; SF-539 CNS; SN12C renal; SNB-19 CNS; SNB-75 CNS; SR leukemia; TK-10 renal; U251 CNS; UO-31 renal.
Common to all, as to assay: growth of human tumour cells (NCI), 48 h

Molecules are shown by their SMILES.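 1) Cells in 96-well plates. 2) Compound, 48 h, 5 concentrations. 3) Linear interpolation between surrounding doses. 4) Unreached endpoint = highest concentration. TGI is the concentration that stops growth completely.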

As for `COc1cc2cccc(N)c2cc1OC`, the TGI in the test on BT-549 breast was over 92.6 µM; in the test with HCT-116 colon, over 100 µM; with HCT-15 colon, over 100 µM; with HT29 colon it was over 100 µM; with NCI-H226 lung, over 100 µM; with NCI-H23 lung, over 100 µM. Besides, the TGI in the test with OVCAR-3 ovarian, with SF-539 CNS, in the test on SN12C renal, in the test with SNB-19 CNS, in the test on SNB-75 CNS and in the test on SR leukemia was over 100 µM throughout. Also, the values for the TGI in the test with TK-10 renal, in the test on U251 CNS and in the test with UO-31 renal were over 72 µM, over 100 µM and over 100 µM, respectively.
On to `CN(NC(=O)c1cccs1)C1=NCCCCN1`, for which the TGI in the test on BT-549 breast, with HCT-116 colon, with HCT-15 colon, in the test on HT29 colon, with NCI-H226 lung and with NCI-H23 lung was over 100 µM in each case. The TGI in the test with OVCAR-3 ovarian, in the test with SF-539 CNS, in the test with SNB-19 CNS, in the test with SNB-75 CNS, in the test on SR leukemia and in the test on TK-10 renal was over 100 µM in each case. The TGI in the test with U251 CNS and in the test on UO-31 renal was over 100 µM in each case.
`CO/N=C(\C(=O)N(C)n1cnnc1)c1csc(NC(c2ccccc2)(c2ccccc2)c2ccccc2)n1`: the TGI in the test with BT-549 breast, in the test with HCT-116 colon, in the test on HCT-15 colon, in the test on HT29 colon, with NCI-H226 lung and in the test on NCI-H23 lung was over 10 µM throughout. The TGI in the test on OVCAR-3 ovarian, in the test with SF-539 CNS, in the test on SN12C renal, in the test on SNB-19 CNS, in the test on SNB-75 CNS and in the test on SR leukemia was over 10 µM throughout. Also, the TGI in the test with TK-10 renal, in the test on U251 CNS and in the test on UO-31 renal was over 10 µM throughout.
Turning to `NCCN1C(=O)CN=C(c2ccc(Cl)cc2)c2cc(Cl)ccc21`, the TGI was 30.3 µM with BT-549 breast; 30.1 µM with HCT-116 colon; 34.7 µM with HCT-15 colon; 36 µM with HT29 colon; 31 µM in the test with NCI-H226 lung; 37.1 µM in the test with NCI-H23 lung. Further, the TGI in the test on OVCAR-3 ovarian turned out to be 29.3 µM; with SF-539 CNS it was 34.1 µM; with SN12C renal, 62.9 µM; in the test on SNB-19 CNS it was 45.6 µM; with SNB-75 CNS, 30.7 µM; in the test with SR leukemia, 40.7 µM. Also, the figures for the TGI in the test with TK-10 renal, in the test with U251 CNS and in the test with UO-31 renal were 30.5 µM, 31.5 µM and 27.3 µM, respectively.
For the compound `COc1cccc2c1OC(c1ccc(C#N)cc1)C([N+](=O)[O-])=C2` (stereo not drawn), the TGI was found to be 2.85 µM in the test on BT-549 breast; 2.8 µM in the test with HCT-116 colon; 3.11 µM in the test with HCT-15 colon; 3.14 µM in the test on HT29 colon; 9.75 µM in the test on NCI-H226 lung; 3.25 µM in the test with NCI-H23 lung. Besides, the TGI was found to be 4.6 µM with OVCAR-3 ovarian; 4.23 µM in the test on SF-539 CNS; 4.37 µM in the test with SN12C renal; 19.2 µM in the test with SNB-19 CNS; 7.32 µM in the test with SNB-75 CNS; 3.11 µM with SR leukemia. The TGI in the test on TK-10 renal was found to be 7.77 µM; in the test with U251 CNS, 3.56 µM; with UO-31 renal, 3.01 µM.
With `Cc1ccc(Nc2c(C#N)[n+]([O-])c3cc(Cl)ccc3[n+]2[O-])cc1`, the TGI in the test on BT-549 breast is over 100 µM; in the test on HCT-116 colon, over 100 µM; in the test with HCT-15 colon, over 100 µM; in the test on HT29 colon it was over 61.1 µM; in the test with NCI-H226 lung, over 100 µM; with NCI-H23 lung it was over 100 µM. Further, the TGI in the test on OVCAR-3 ovarian was over 42.4 µM; with SF-539 CNS, over 100 µM; in the test on SN12C renal it was over 100 µM; with SNB-19 CNS, over 100 µM; in the test with SNB-75 CNS, over 100 µM; in the test on SR leukemia, over 36.3 µM. For the same compound, the TGI in the test on TK-10 renal, in the test with U251 CNS and with UO-31 renal was over 100 µM throughout.
Consider `CC(SC(=S)N1CCOCC1)C(=O)Nc1nnc(-c2ccccc2)o1` (stereo not drawn), for which the TGI with BT-549 breast, with HCT-116 colon, in the test with HCT-15 colon, with HT29 colon, in the test on NCI-H226 lung and with NCI-H23 lung was over 100 µM in each case. Further, the TGI in the test with OVCAR-3 ovarian, in the test with SF-539 CNS, with SN12C renal, in the test on SNB-19 CNS, in the test on SNB-75 CNS and in the test with SR leukemia was over 100 µM each time. Further, the TGI in the test with TK-10 renal, in the test on U251 CNS and in the test on UO-31 renal was over 100 µM in each case.
As for `CC(=O)Nc1cc2c3c(c1)CCCN3CCC2`, the TGI with BT-549 breast, in the test on HCT-116 colon, in the test with HCT-15 colon, in the test with HT29 colon, with NCI-H226 lung and in the test on NCI-H23 lung was over 100 µM each time. The TGI in the test on OVCAR-3 ovarian, in the test with SF-539 CNS, in the test with SNB-19 CNS, in the test with SNB-75 CNS, with SR leukemia and in the test with TK-10 renal was over 100 µM each time. Also, the TGI with U251 CNS and in the test with UO-31 renal was over 100 µM each time.
Consider `O=C(CSc1nc2[nH]ncc2c(=O)[nH]1)c1ccc(Cl)cc1`, for which the TGI with BT-549 breast, with HCT-116 colon, in the test on HCT-15 colon, in the test with HT29 colon, in the test with NCI-H226 lung and in the test with NCI-H23 lung was over 100 µM throughout. Moreover, the TGI in the test on OVCAR-3 ovarian, in the test on SF-539 CNS, in the test on SN12C renal, in the test with SNB-19 CNS, in the test on SNB-75 CNS and in the test with SR leukemia was over 100 µM throughout. Further, the TGI in the test on TK-10 renal, in the test with U251 CNS and in the test with UO-31 renal was over 100 µM each time.
